Measurements as given in ChEMBL document CHEMBL2069307, “Triazolbenzo[d]thiazoles: efficient synthesis and biological evaluation as neuroprotective agents” (Bioorg Med Chem Lett, 2012).
Active and inactive are the calls of the source. The calls are words filed in the database; no cut-off is given here.

Key:
SH-SY5Y [1] = test: Neuroprotective activity against serum starvation-induced cell death in human SH-SY5Y cells assessed as increase in cell viability at 10 and 20 uM after 3 days by tetrazolium reduction assay; format: functional, cell-based
[2] = Solubility of the compound; format: physicochemical
SH-SY5Y [3] = test: Neuroprotective activity against serum starvation-induced cell death in human SH-SY5Y cells assessed as increase in cell […] at 20 and 40 uM after 3 days by tetrazolium reduction assay; format: functional, cell-based
SH-SY5Y [4] = test: Neuroprotective activity against serum starvation-induced cell death in human SH-SY5Y cells assessed as increase in cell viability at 20 and 40 uM after 3 days by tetrazolium reduction assay; format: functional, cell-based

Row | solubility [2] | solubility ([2]; read-out: solubility) [µM] | SMILES | Activity (SH-SY5Y [1]) | Activity (SH-SY5Y [3]) | Activity (SH-SY5Y [4])
1 | Insoluble | – | c1ccc(-c2cn(-c3ccc4nc(N5CCOCC5)sc4c3)nn2)cc1 | inactive | – | –
2 | Insoluble | – | COC(=O)c1cn(-c2ccc3nc(N4CCOCC4)sc3c2)nn1 | inactive | – | –
3 | – | > 40 | CC(C)n1c(=O)c2ccccc2n1Cc1cn(-c2ccc3nc(N4CCOCC4)sc3c2)nn1 | – | Active | Active
